Laboratory results taken from PMC9945734 (BMC Medicine, 2023).

Columns and labels:
[1] = target: T1, KLF5^K369Q protein (Homo sapiens, UniProt Q13887, K369Q); test: Fluorescence titration (quenching) of KLF5 protein; details: read-out: binding constant Kd
T1 construct: made in house; host or cells: E. coli BL21 DE3
Protocol: (§1) Wild-type or mutant KLF5 protein at 1 μM in 2 mL PBS was measured for fluorescence spectrum using a fluorescence spectrometer (HORIBA, Kyoto, Japan), and the fluorescence spectra were obtained for wavelengths of 300–500 nm. NTZ with various concentration ranges and various increments were used in the analysis, including 0.1–1 μM with an increment of 0.1 μM, 1–5 μM with an increment of 0.5 μM, 5–10 μM with an increment of 1 μM, and 10–30 μM with an increment of 5 μM. The incubation with NTZ was for 5 s at room temperature. Data were processed and fitted to obtain the binding affinities using the Origin software (OriginLab, Northampton, MA, USA), and Kd values were determined by the responses at […] wavelength.

[2] = target: T2, KLF5^K369R protein (Homo sapiens, UniProt Q13887, K369R); test: Fluorescence titration (quenching) of KLF5 protein; details: read-out: binding constant Kd
T2 construct: made in house; host or cells: E. coli BL21 DE3
Protocol: as §1

[3] = system: PC-3-KQ-Luc cells; test: Bone metastasis assay, prevention mode; format: in vivo, Balb/c nude mice; details: 100 mg/kg intragastric every day
Source text: (§2) Male Balb/c nude mice at 3-4 weeks old were purchased from Charles River (Beijing, China). Upon arrival at the Animal Center of the Southern University of Science and Technology (SUSTech), mice were quarantined for one week before use. All mice were maintained and handled following the National Institutes of Health guide for the Care and Use of Laboratory Animals. To measure if NTZ inhibits Ac-KLF5-induced bone metastasis, we used both prevention and therapy modes. […] Then the mice were randomly divided into vehicle and NTZ groups (six mice in each group) and received treatment at day 0. The tumor growth and body weight were determined every week. After 5 weeks of treatment, all mice were sacrificed and bone tissues and major organs were resected for hematoxylin and eosin (H&E) staining. The selection of 5 weeks for investigation is based on the pilot experiment, in which clear bone metastases formed at 5 weeks after injection but no tumors were detected in other organs, including the brain, liver, lung, spleen, heart, prostate, seminal vesicle, small intestine, and testes (data not shown). Tumor growth in the bone was determined once a week by in vivo BL imaging using the Living Image Software 4.4 (IVIS Spectrum, PerkinElmer Health Sciences, Massachusetts, USA). Ten minutes after intraperitoneal injection of D-luciferin sodium salt (15 mg/mL, 10 μL/g BW) (GM-040611, Genomeditech, Shanghai, China), bioluminescence images were acquired with the following conditions: open emission filter, exposure time = 60 s, binning = medium: 8, field of view = 12.9 ×12.9 cm, and f/stop = 1. Images were then analyzed using the Living Image 4.4 software (PerkinElmer). At the end of treatment, bioluminescence intensities were measured by photon flux of the region of interest (ROI) and compared between the vehicle and NTZ treatment groups. […] CC0113, […] Biotechnology, Beijing, China) was used as vehicle control, and NTZ was solved in CMC. NTZ was delivered into mice via intragastric administration (100 mg/kg BW) every day. Femurs were decalcified in ethylenediaminetetraacetic (EDTA) decalcification solution (Cat #: R20403-5L, OKA, Beijing, China) for 14-21 days. After decalcification, bone tissues were dehydrated in gradient ethanol from 70 to 95%, soaked in n-butanol for 6 h, and then embedded in paraffin. Tissue blocks were cut into 4 μm sections. After baking in an oven at 63°C for 1.5 h, tissue slides were deparaffinized with xylene, hydrated with gradient ethanol, and then stained with H&E (Cat #: BA4025, BaSO, Zhuhai, China). Slides were then mounted for analysis with neutral resins (Cat #: 25608-33-7, Sigma-Aldrich, MO, USA).

[4] = system: PC-3-KR-Luc cells; test: Bone metastasis assay, prevention mode; format: in vivo, Balb/c nude mice; details: 100 mg/kg intragastric every day
Source text: as §2

[5] = system: RAW264.7 cells; test: RANKL-induced osteoclast differentiation, TRAP staining; format: cell-based; details: RANKL 50 ng/mL
Protocol: Three different culture systems were used for the in vitro osteoclast differentiation assay. In the first one, RAW264.7 cells were seeded onto 96-well plates at 1 × 10^3 cells/well and cultured overnight. Cells were then stimulated with recombinant mouse RANKL (Cat #: CR06, Novoprotein, Shanghai, China) at 50 ng/mL in the presence or absence of various concentrations of NTZ (0, 6.25, 12.5, 25 μM). […] Cells were then fixed in 4% paraformaldehyde for 10 min, rinsed with prewarmed deionized water, and stained with tartrate-resistant acid phosphatase (TRAP) using a kit from Sigma-Aldrich (Cat #: A387) to visualize osteoclasts (≥ 3 nuclei/cell). The effect of NTZ on osteoclast differentiation was determined by counting the number of multinucleated cells using the Image J software (Image J 1.48v).

[6] = system: osteoclasts in mouse femurs; test: TRAP staining of bone tissue sections; format: in vivo, Balb/c nude mice; details: compared to the vehicle group
Protocol: The procedure for TRAP staining in tissues was described in our previous study. Briefly, deparaffinized and hydrated bone sections were incubated in 0.2 M acetic acid for 20 min and then in 0.2 M acetic acid containing the fast red TR salt (1.1 mg/mL) and naphthol AS-MX phosphate (0.5 mg/mL) for about 45 min at 37°C. When TRAP-positive cells turn red, as monitored using microscopy, slides were counterstained with hematoxylin and mounted with coverslips using glycerin. Slides were then scanned and analyzed as described above.

T2 sequence (Q13887 whole entry K369R): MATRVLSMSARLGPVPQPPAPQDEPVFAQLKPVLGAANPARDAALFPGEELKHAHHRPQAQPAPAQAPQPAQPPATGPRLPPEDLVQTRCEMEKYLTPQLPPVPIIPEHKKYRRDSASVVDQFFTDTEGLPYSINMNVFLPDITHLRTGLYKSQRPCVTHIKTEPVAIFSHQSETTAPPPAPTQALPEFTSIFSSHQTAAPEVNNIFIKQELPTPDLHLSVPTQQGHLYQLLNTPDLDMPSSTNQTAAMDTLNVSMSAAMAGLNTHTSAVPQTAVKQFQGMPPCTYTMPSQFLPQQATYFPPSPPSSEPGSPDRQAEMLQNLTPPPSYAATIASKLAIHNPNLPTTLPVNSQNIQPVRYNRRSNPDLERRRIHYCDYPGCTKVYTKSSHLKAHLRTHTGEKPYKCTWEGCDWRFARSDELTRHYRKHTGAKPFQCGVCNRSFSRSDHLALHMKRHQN
T1 sequence (Q13887 whole entry K369Q): as the sequence (Q13887 whole entry K369R) above, with R369Q counted along it

Compound: CC(=O)Oc1ccccc1C(=O)Nc1ncc([N+](=O)[O-])s1 [Nitazoxanide]
- Kd [1]: 5.4 µM
- Kd [2]: 7.3 µM
- tumor cell area in bone sections (H&E) [3]: significantly decreased tumor cell area
- bone metastasis, bioluminescence signals ([3]; day 35): dramatically reduced bone metastasis
- tumor cell area in bone sections (H&E) [4]: not significantly affected
- bioluminescence intensity ([4]; day 35): did not have a significant effect
- number of TRAP^+ multinucleated cells ([5]; 6.25 and 12.5 μM): significantly decreased
- number of TRAP^+ multinucleated cells ([5]; NTZ 0, 6.25, 12.5, 25 μM): decreased the number of TRAP^+ multinucleated cells in a dose-dependent manner
- number of TRAP^+ cells in mouse femurs [6]: significantly reduced the number of TRAP^+ cells
